This passage reports T/C results from PubChem BioAssay AID220 (DTP/NCI, 2004).

In this assay the test system is CD8F1 mice, subcutaneous mammary adenocarcinoma, T/C%. The assay can be described thus: NCI In Vivo Anticancer Drug Screen. Data for tumor model Mammary Adenocarcinoma CD8F1 (subcutaneous) in CD8F1. Conditions: higher = larger tumour. The procedure, abridged:
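Antitumor activity is assessed in transplantable-tumor mice by comparing the treated group with a vehicle-treated control group. Survival or tumor size serves as the measure, reported as T divided by C.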

Where [1] appears, read: endpoint: median tumor weight (est.), dose: 12.5 mg/kg/injection, schedule: Q07DX005 (ip), vehicle: saline with Tween-80.
Setting [2] is: endpoint: median tumor weight (est.), dose: 25.0 mg/kg/injection, schedule: Q07DX005 (ip), vehicle: saline with Tween-80.
Where [3] appears, read: endpoint: median tumor weight (est.), dose: 100.0 mg/kg/injection, schedule: Q07DX005 (ip), vehicle: saline with Tween-80.

Structures are written as SMILES. Where “and” joins values, the source holds several entries; their conditions need not be identical. Equal values may be shown once. Records with an inconclusive call do not appear.

In the case of `CCN(CC)CCNc1ccc(CO)c2sc3ccccc3c(=O)c12`, the T/C is 62 % of control (endpoint: median tumor weight (est.), dose: 6.25 mg/kg/injection, schedule: Q07DX005 (ip), vehicle: water); 120 % of control (endpoint: median tumor weight (est.), dose: 12.5 mg/kg/injection, schedule: Q07DX005 (ip), vehicle: clinical formulation); 67 % of control (endpoint: median tumor weight (est.), dose: 12.5 mg/kg/injection, schedule: Q07DX005 (ip), vehicle: water); 82 % of control (endpoint: median tumor weight (est.), dose: 25.0 mg/kg/injection, schedule: Q07DX005 (ip), vehicle: clinical formulation); 51 % of control (endpoint: median tumor weight (est.), dose: 25.0 mg/kg/injection, schedule: Q07DX005 (ip), vehicle: water); 53 % of control (endpoint: median tumor weight (est.), dose: 50.0 mg/kg/injection, schedule: Q07DX005 (ip), vehicle: clinical formulation). The T/C by setting is: (endpoint: median tumor weight (est.), dose: 50.0 mg/kg/injection, schedule: Q07DX005 (ip), vehicle: water) 39 % of control; (endpoint: median tumor weight (est.), dose: 100.0 mg/kg/injection, schedule: Q07DX005 (ip), vehicle: clinical formulation) 17 % of control; (endpoint: median tumor weight (est.), dose: 100.0 mg/kg/injection, schedule: Q07DX005 (ip), vehicle: water) 3 % of control.

As for `CCCCC(=O)OCC(=O)[C@]1(O)Cc2c(O)c3c(c(O)c2[C@@H](OC2CC(NC(=O)C(F)(F)F)C(O)C(C)O2)C1)C(=O)c1c(OC)cccc1C3=O` (stereo not given in full), the T/C reads like this: (endpoint: median tumor weight (est.), dose: 8.0 mg/kg/injection, schedule: Q07DX005 (ip), vehicle: distilled water + Tween-80) 77 % of control; (endpoint: median tumor weight (est.), dose: 16.0 mg/kg/injection, schedule: Q07DX005 (ip), vehicle: distilled water + Tween-80) 86 % of control; (endpoint: median tumor weight (est.), dose: 32.0 mg/kg/injection, schedule: Q07DX005 (ip), vehicle: distilled water + Tween-80) 58 % of control; (endpoint: median tumor weight (est.), dose: 44.0 mg/kg/injection, schedule: Q07DX004 (ip), vehicle: clinical formulation) 51 % of control; (endpoint: median tumor weight (est.), dose: 64.0 mg/kg/injection, schedule: Q07DX005 (ip), vehicle: distilled water + Tween-80) 18 % of control; (endpoint: median tumor weight (est.), dose: 67.0 mg/kg/injection, schedule: Q07DX004 (ip), vehicle: clinical formulation) 32 % of control. Further, the T/C is 10 % of control (endpoint: median tumor weight (est.), dose: 100.0 mg/kg/injection, schedule: Q07DX004 (ip), vehicle: clinical formulation); 2 % of control (endpoint: median tumor weight (est.), dose: 128.0 mg/kg/injection, schedule: Q07DX005 (ip), vehicle: distilled water + Tween-80); 3 % of control (endpoint: median tumor weight (est.), dose: 150.0 mg/kg/injection, schedule: Q07DX004 (ip), vehicle: clinical formulation); 45 % of control (endpoint: median tumor weight change, dose: 90.0 mg/kg/injection, schedule: Q01DX001 (ip), vehicle: clinical formulation).

As for `CNc1nc(NC)nc(NC)n1`, the T/C by setting is: (endpoint: median tumor weight (est.), dose: 12.5 mg/kg/injection, schedule: Q07DX005 (ip), vehicle: Klucel (hydroxypropylcellulose) (HPC)) 83 % of control; (endpoint: median tumor weight (est.), dose: 12.5 mg/kg/injection, schedule: Q07DX006 (ip), vehicle: Klucel (hydroxypropylcellulose) (HPC)) 86 % of control; (endpoint: median tumor weight (est.), dose: 25.0 mg/kg/injection, schedule: Q07DX005 (ip), vehicle: Klucel (hydroxypropylcellulose) (HPC)) 163 % of control; (endpoint: median tumor weight (est.), dose: 25.0 mg/kg/injection, schedule: Q07DX006 (ip), vehicle: Klucel (hydroxypropylcellulose) (HPC)) 72 % of control; (endpoint: median tumor weight (est.), dose: 50.0 mg/kg/injection, schedule: Q07DX005 (ip), vehicle: Klucel (hydroxypropylcellulose) (HPC)) 107 % of control; (endpoint: median tumor weight (est.), dose: 50.0 mg/kg/injection, schedule: Q07DX006 (ip), vehicle: Klucel (hydroxypropylcellulose) (HPC)) 203 % of control. Moreover, the T/C is, setting by setting: (endpoint: median tumor weight (est.), dose: 100.0 mg/kg/injection, schedule: Q07DX005 (ip), vehicle: Klucel (hydroxypropylcellulose) (HPC)) 93 % of control; (endpoint: median tumor weight (est.), dose: 100.0 mg/kg/injection, schedule: Q07DX006 (ip), vehicle: Klucel (hydroxypropylcellulose) (HPC)) 294 % of control; (endpoint: median tumor weight (est.), dose: 200.0 mg/kg/injection, schedule: Q07DX005 (ip), vehicle: Klucel (hydroxypropylcellulose) (HPC)) 174 % of control; (endpoint: median tumor weight (est.), dose: 200.0 mg/kg/injection, schedule: Q07DX006 (ip), vehicle: Klucel (hydroxypropylcellulose) (HPC)) 117 % of control; (endpoint: median tumor weight (est.), dose: 400.0 mg/kg/injection, schedule: Q07DX005 (ip), vehicle: Klucel (hydroxypropylcellulose) (HPC)) 65 % of control.

Take `COc1cc2c(c(OC)c1OC)-c1c(cc3c(c1OC)OCO3)CC(C)C(C)(O)C2OC(=O)c1ccccc1` (stereo not given): the T/C runs as follows: (endpoint: median tumor weight change, dose: 31.0 mg/kg/injection, schedule: Q01DX001 (ip), vehicle: saline + Tween-80 + alcohol) 93 % of control; (endpoint: median tumor weight change, dose: 125.0 mg/kg/injection, schedule: Q01DX001 (ip), vehicle: saline + Tween-80 + alcohol) 121 % of control; (endpoint: median tumor weight change, dose: 250.0 mg/kg/injection, schedule: Q01DX001 (ip), vehicle: saline + Tween-80 + alcohol) 95 % of control; (endpoint: median tumor weight change, dose: 500.0 mg/kg/injection, schedule: Q01DX001 (ip), vehicle: saline + Tween-80 + alcohol) 110 % of control; (endpoint: median tumor weight change, dose: 900.0 mg/kg/injection, schedule: Q01DX001 (ip), vehicle: saline + alcohol) 96 % of control; (endpoint: median tumor weight change, dose: 1800.0 mg/kg/injection, schedule: Q01DX001 (ip), vehicle: saline + alcohol) 124 % of control. Moreover, under “endpoint: median tumor weight change, dose: 3600.0 mg/kg/injection, schedule: Q01DX001 (ip), vehicle: saline + alcohol”, the T/C was 59 % of control.

For the compound `CCCCNC(C)[C@]1(O)Cc2c(O)c3c(c(O)c2[C@@H](OC2CC(N)C(O)C(C)O2)C1)C(=O)c1c(OC)cccc1C3=O` (stereo not given in full), the T/C reads like this: (endpoint: median tumor weight (est.), dose: 2.67 mg/kg/injection, schedule: Q07DX005 (ip), vehicle: water) 89 % of control; (endpoint: median tumor weight (est.), dose: 4.0 mg/kg/injection, schedule: Q07DX005 (ip), vehicle: water) 74 % of control; (endpoint: median tumor weight (est.), dose: 6.0 mg/kg/injection, schedule: Q07DX005 (ip), vehicle: water) 47 % of control.

Turning to `CCCCCCCCCCCCCCC/C([O-])=N/[N+](C)(C)CC(C)O` (stereo not given), the T/C is 49 % of control (endpoint: median tumor weight change, dose: 125.0 mg/kg/injection, schedule: Q01DX001 (ip), vehicle: saline); 96 % of control (endpoint: median tumor weight change, dose: 250.0 mg/kg/injection, schedule: Q01DX001 (ip), vehicle: saline); 69 % of control (endpoint: median tumor weight change, dose: 500.0 mg/kg/injection, schedule: Q01DX001 (ip), vehicle: saline).

As for `Cc1cnc(/C=N\NC(N)=S)c2cccc(N)c12`, the T/C (endpoint: median tumor weight (est.), dose: 3.12 mg/kg/injection, schedule: Q07DX005 (ip), vehicle: saline with Tween-80) is 93 % of control; the T/C under setting [1] was 83 % of control and 94 % of control; the T/C under setting [2] was 54 % of control and 71 % of control; the T/C (endpoint: median tumor weight (est.), dose: 50.0 mg/kg/injection, schedule: Q07DX005 (ip), vehicle: saline with Tween-80) is 46 % of control and 62 % of control; the T/C under setting [3] was 55 % of control and 66 % of control.

As to `CCCCOC(=O)/C=C(\Br)C(=O)OCCCC`, the T/C runs as follows: under setting [1], 115 % of control; under setting [2], 95 % of control and 119 % of control; under setting [3], 100 % of control and 119 % of control; (endpoint: median tumor weight (est.), dose: 200.0 mg/kg/injection, schedule: Q07DX005 (ip), vehicle: saline with Tween-80) 114 % of control.

For `CC1=C2CC(C)(C)/C=C\C(=O)/C(C)=C\C3=C[C@H](C)C[C@]3(O2)C1=O`, the T/C reads like this: (endpoint: median tumor weight (est.), dose: 1.5 mg/kg/injection, schedule: Q07DX005 (ip), vehicle: Klucel (hydroxypropylcellulose) (HPC)) 78 % of control; (endpoint: median tumor weight (est.), dose: 1.5 mg/kg/injection, schedule: Q07DX005 (ip), vehicle: saline) 94 % of control; (endpoint: median tumor weight (est.), dose: 3.0 mg/kg/injection, schedule: Q07DX005 (ip), vehicle: Klucel (hydroxypropylcellulose) (HPC)) 212 % of control; (endpoint: median tumor weight (est.), dose: 6.0 mg/kg/injection, schedule: Q07DX005 (ip), vehicle: Klucel (hydroxypropylcellulose) (HPC)) 174 % of control; (endpoint: median tumor weight (est.), dose: 6.0 mg/kg/injection, schedule: Q07DX005 (ip), vehicle: saline) 112 % of control; (endpoint: median tumor weight (est.), dose: 12.0 mg/kg/injection, schedule: Q07DX005 (ip), vehicle: Klucel (hydroxypropylcellulose) (HPC)) 80 % of control. The T/C reads like this: (endpoint: median tumor weight (est.), dose: 12.0 mg/kg/injection, schedule: Q07DX005 (ip), vehicle: saline) 88 % of control; (endpoint: median tumor weight (est.), dose: 24.0 mg/kg/injection, schedule: Q07DX005 (ip), vehicle: Klucel (hydroxypropylcellulose) (HPC)) 466 % of control; (endpoint: median tumor weight (est.), dose: 48.0 mg/kg/injection, schedule: Q07DX005 (ip), vehicle: saline) 44 % of control.

Regarding `CCN1/C(=C/C=C/C=C/c2sc3ccccc3[n+]2CC)Sc2ccccc21`, the T/C (endpoint: median tumor weight (est.), dose: 0.37 mg/kg/injection, schedule: Q07DX006 (ip), vehicle: saline) is 77 % of control and the T/C (endpoint: median tumor weight (est.), dose: 0.75 mg/kg/injection, schedule: Q07DX006 (ip), vehicle: saline) was 233 % of control.

On to `O=C(NO)c1ccc(O)c(O)c1`, for which the T/C by setting is: (endpoint: median tumor weight change, dose: 300.0 mg/kg/injection, schedule: Q01DX001 (ip), vehicle: water) 89 % of control; (endpoint: median tumor weight change, dose: 600.0 mg/kg/injection, schedule: Q01DX001 (ip), vehicle: water) 48 % of control.
